Results from PubChem BioAssay (NCI).
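Five compound concentrations were applied to cells in 96-well plates for 48 hours; endpoints were derived by simple linear interpolation of the resulting dose-response curve. TGI: total growth inhibition.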

What was measured:
Assay in all cases: growth of human tumour cells (NCI), 48 h
SF-539 CNS = tested on: SF-539 CNS
BT-549 breast = tested on: BT-549 breast
CAKI-1 renal = tested on: CAKI-1 renal
SK-MEL-28 melanoma = tested on: SK-MEL-28 melanoma
OVCAR-8 ovarian = tested on: OVCAR-8 ovarian
OVCAR-3 ovarian = tested on: OVCAR-3 ovarian
SF-295 CNS = tested on: SF-295 CNS
DU-145 prostate = tested on: DU-145 prostate
SF-268 CNS = tested on: SF-268 CNS
SN12C renal = tested on: SN12C renal
IGROV1 ovarian = tested on: IGROV1 ovarian
PC-3 prostate = tested on: PC-3 prostate
MDA-MB-435 = tested on: MDA-MB-435
SK-MEL-5 melanoma = tested on: SK-MEL-5 melanoma
MOLT-4 leukemia = tested on: MOLT-4 leukemia
MDA-N = tested on: MDA-N
U251 CNS = tested on: U251 CNS
TK-10 renal = tested on: TK-10 renal
LOX IMVI melanoma = tested on: LOX IMVI melanoma
HCT-15 colon = tested on: HCT-15 colon
SNB-75 CNS = tested on: SNB-75 CNS
HOP-62 NSCLC = tested on: HOP-62 NSCLC
NCI-H226 lung = tested on: NCI-H226 lung
NCI-H460 lung = tested on: NCI-H460 lung
RPMI-8226 leukemia = tested on: RPMI-8226 leukemia
OVCAR-4 ovarian = tested on: OVCAR-4 ovarian
K-562 leukemia = tested on: K-562 leukemia
MCF7 breast = tested on: MCF7 breast
M14 melanoma = tested on: M14 melanoma
HT29 colon = tested on: HT29 colon
NCI-H522 lung = tested on: NCI-H522 lung
HCC-2998 colon = tested on: HCC-2998 colon
UO-31 renal = tested on: UO-31 renal
SW-620 colon = tested on: SW-620 colon
MDA-MB-231 breast = tested on: MDA-MB-231 breast
OVCAR-5 ovarian = tested on: OVCAR-5 ovarian
ACHN renal = tested on: ACHN renal
T-47D breast = tested on: T-47D breast
A549 NSCLC = tested on: A549 NSCLC
UACC-257 melanoma = tested on: UACC-257 melanoma
RXF 393 renal = tested on: RXF 393 renal
HCT-116 colon = tested on: HCT-116 colon
EKVX NSCLC = tested on: EKVX NSCLC
MALME-3M melanoma = tested on: MALME-3M melanoma
COLO 205 colon = tested on: COLO 205 colon
HS 578T breast = tested on: HS 578T breast
SR leukemia = tested on: SR leukemia
NCI/ADR-RES ovarian = tested on: NCI/ADR-RES ovarian
HOP-92 NSCLC = tested on: HOP-92 NSCLC
SK-MEL-2 melanoma = tested on: SK-MEL-2 melanoma
SK-OV-3 ovarian = tested on: SK-OV-3 ovarian
NCI-H23 lung = tested on: NCI-H23 lung
HL-60(TB) leukemia = tested on: HL-60(TB) leukemia
786-0 renal = tested on: 786-0 renal
A498 renal = tested on: A498 renal
SNB-19 CNS = tested on: SNB-19 CNS
UACC-62 melanoma = tested on: UACC-62 melanoma
KM12 colon = tested on: KM12 colon

`N#CCCN(CCC#N)CCN(CCN(CCC#N)CCC#N)CCN(CCC#N)CCC#N` was tested, and the TGI (SF-539 CNS) was > 100 µM, the TGI (BT-549 breast) was > 100 µM and the TGI (CAKI-1 renal) was > 100 µM. The TGI (SK-MEL-28 melanoma) was > 100 µM, the TGI (OVCAR-8 ovarian) was > 100 µM and the TGI (OVCAR-3 ovarian) was > 100 µM. For the same compound, the TGI (SF-295 CNS) was > 100 µM, the TGI (DU-145 prostate) was > 100 µM and the TGI (SF-268 CNS) was > 100 µM. For the same compound, the TGI (SN12C renal) was > 100 µM, the TGI (IGROV1 ovarian) was > 100 µM and the TGI (PC-3 prostate) was > 100 µM. The TGI (MDA-MB-435) was > 100 µM, the TGI (SK-MEL-5 melanoma) was > 100 µM and the TGI (MOLT-4 leukemia) was > 100 µM. The TGI (MDA-N) was > 100 µM, the TGI (U251 CNS) was > 100 µM and the TGI (TK-10 renal) was > 100 µM. The TGI (LOX IMVI melanoma) was > 100 µM, the TGI (HCT-15 colon) was > 100 µM and the TGI (SNB-75 CNS) was > 100 µM. The TGI (HOP-62 NSCLC) was > 100 µM, the TGI (NCI-H226 lung) was > 100 µM and the TGI (NCI-H460 lung) was > 100 µM. The TGI (RPMI-8226 leukemia) was > 100 µM, the TGI (OVCAR-4 ovarian) was > 100 µM and the TGI (K-562 leukemia) was > 100 µM. For the same compound, the TGI (MCF7 breast) was > 100 µM, the TGI (M14 melanoma) was > 100 µM and the TGI (HT29 colon) was > 100 µM. The TGI (NCI-H522 lung) was > 100 µM, the TGI (HCC-2998 colon) was > 100 µM and the TGI (UO-31 renal) was > 100 µM. For the same compound, the TGI (SW-620 colon) was > 100 µM, the TGI (MDA-MB-231 breast) was > 100 µM and the TGI (OVCAR-5 ovarian) was > 100 µM. The TGI (ACHN renal) was > 100 µM, the TGI (T-47D breast) was > 100 µM and the TGI (A549 NSCLC) was > 100 µM. The TGI (UACC-257 melanoma) was > 100 µM, the TGI (RXF 393 renal) was > 100 µM and the TGI (HCT-116 colon) was > 100 µM. For the same compound, the TGI (EKVX NSCLC) was > 100 µM, the TGI (MALME-3M melanoma) was > 100 µM and the TGI (COLO 205 colon) was > 100 µM. The TGI (HS 578T breast) was > 100 µM, the TGI (SR leukemia) was > 100 µM and the TGI (NCI/ADR-RES ovarian) was > 100 µM. For the same compound, the TGI (HOP-92 NSCLC) was > 100 µM, the TGI (SK-MEL-2 melanoma) was > 100 µM and the TGI (SK-OV-3 ovarian) was > 100 µM. The TGI (NCI-H23 lung) was > 100 µM, the TGI (HL-60(TB) leukemia) was > 100 µM and the TGI (786-0 renal) was > 100 µM. The TGI (A498 renal) was > 100 µM and the TGI (SNB-19 CNS) was > 100 µM.
With `O=C(Oc1cccc2cccnc12)c1cc2cc(CCl)ccc2oc1=O` the TGI (SF-539 CNS) was > 100 µM, the TGI (BT-549 breast) was > 100 µM and the TGI (CAKI-1 renal) was 85.5 µM. The TGI (SK-MEL-28 melanoma) was > 100 µM, the TGI (OVCAR-8 ovarian) was > 100 µM and the TGI (OVCAR-3 ovarian) was > 100 µM. The TGI (SF-295 CNS) was > 100 µM, the TGI (DU-145 prostate) was > 100 µM and the TGI (SF-268 CNS) was 52.7 µM. For the same compound, the TGI (SN12C renal) was 54.4 µM, the TGI (IGROV1 ovarian) was > 100 µM and the TGI (PC-3 prostate) was 31.3 µM. The TGI (MDA-MB-435) was > 100 µM, the TGI (SK-MEL-5 melanoma) was > 100 µM and the TGI (MOLT-4 leukemia) was > 100 µM. For the same compound, the TGI (MDA-N) was > 100 µM, the TGI (UACC-62 melanoma) was 36.8 µM and the TGI (U251 CNS) was 88.4 µM. For the same compound, the TGI (TK-10 renal) was > 100 µM, the TGI (LOX IMVI melanoma) was > 100 µM and the TGI (KM12 colon) was > 100 µM. For the same compound, the TGI (HCT-15 colon) was 24.2 µM, the TGI (SNB-75 CNS) was > 100 µM and the TGI (HOP-62 NSCLC) was > 100 µM. The TGI (NCI-H226 lung) was > 100 µM, the TGI (NCI-H460 lung) was 40.9 µM and the TGI (RPMI-8226 leukemia) was > 100 µM. For the same compound, the TGI (OVCAR-4 ovarian) was > 100 µM, the TGI (K-562 leukemia) was > 100 µM and the TGI (MCF7 breast) was 11.4 µM. It also gave a TGI (M14 melanoma) of 88.4 µM, a TGI (HT29 colon) of 33 µM and a TGI (NCI-H522 lung) of 8.87 µM. The TGI (HCC-2998 colon) was 50.6 µM, the TGI (UO-31 renal) was 72.2 µM and the TGI (SW-620 colon) was > 100 µM. The TGI (MDA-MB-231 breast) was 89.4 µM, the TGI (OVCAR-5 ovarian) was > 100 µM and the TGI (ACHN renal) was > 100 µM. The TGI (T-47D breast) was 54.5 µM, the TGI (A549 NSCLC) was > 100 µM and the TGI (UACC-257 melanoma) was > 100 µM. For the same compound, the TGI (RXF 393 renal) was 49.6 µM, the TGI (HCT-116 colon) was 13.8 µM and the TGI (EKVX NSCLC) was 6.38 µM. For the same compound, the TGI (MALME-3M melanoma) was 39.7 µM, the TGI (COLO 205 colon) was 39.9 µM and the TGI (HS 578T breast) was > 100 µM. For the same compound, the TGI (SR leukemia) was > 100 µM, the TGI (NCI/ADR-RES ovarian) was > 100 µM and the TGI (HOP-92 NSCLC) was > 100 µM. The TGI (SK-MEL-2 melanoma) was 79.8 µM, the TGI (SK-OV-3 ovarian) was > 100 µM and the TGI (NCI-H23 lung) was 42.8 µM. The TGI (HL-60(TB) leukemia) was 77.4 µM, the TGI (786-0 renal) was 46.7 µM and the TGI (A498 renal) was > 100 µM. For the same compound, the TGI (SNB-19 CNS) was > 100 µM.
In the case of `COC(=O)/C(C#N)=C(\Nc1ccccc1)N1CCCC1`, the TGI (SF-539 CNS) is reported as > 100 µM, the TGI (BT-549 breast) is reported as > 100 µM and the TGI (CAKI-1 renal) is reported as > 100 µM. For the same compound, the TGI (SK-MEL-28 melanoma) was > 100 µM, the TGI (OVCAR-8 ovarian) was > 100 µM and the TGI (OVCAR-3 ovarian) was > 100 µM. The TGI (SF-295 CNS) was > 100 µM, the TGI (DU-145 prostate) was > 100 µM and the TGI (SF-268 CNS) was > 100 µM. The TGI (SN12C renal) was > 100 µM, the TGI (IGROV1 ovarian) was > 100 µM and the TGI (PC-3 prostate) was > 100 µM. The TGI (MDA-MB-435) was > 100 µM, the TGI (SK-MEL-5 melanoma) was > 100 µM and the TGI (MOLT-4 leukemia) was > 100 µM. The TGI (MDA-N) was > 100 µM, the TGI (U251 CNS) was > 100 µM and the TGI (TK-10 renal) was > 100 µM. For the same compound, the TGI (LOX IMVI melanoma) was > 100 µM, the TGI (HCT-15 colon) was > 100 µM and the TGI (SNB-75 CNS) was > 100 µM. For the same compound, the TGI (HOP-62 NSCLC) was > 100 µM, the TGI (NCI-H226 lung) was > 100 µM and the TGI (NCI-H460 lung) was > 100 µM. The TGI (RPMI-8226 leukemia) was > 100 µM, the TGI (OVCAR-4 ovarian) was > 100 µM and the TGI (K-562 leukemia) was > 100 µM. The TGI (MCF7 breast) was > 100 µM, the TGI (M14 melanoma) was > 100 µM and the TGI (HT29 colon) was > 100 µM. For the same compound, the TGI (NCI-H522 lung) was > 100 µM, the TGI (HCC-2998 colon) was > 100 µM and the TGI (UO-31 renal) was > 100 µM. The TGI (SW-620 colon) was > 100 µM, the TGI (MDA-MB-231 breast) was > 100 µM and the TGI (OVCAR-5 ovarian) was > 100 µM. The TGI (ACHN renal) was > 100 µM, the TGI (T-47D breast) was > 100 µM and the TGI (A549 NSCLC) was > 100 µM. For the same compound, the TGI (UACC-257 melanoma) was > 100 µM, the TGI (RXF 393 renal) was > 100 µM and the TGI (HCT-116 colon) was > 100 µM. For the same compound, the TGI (EKVX NSCLC) was > 100 µM, the TGI (MALME-3M melanoma) was > 100 µM and the TGI (COLO 205 colon) was > 100 µM. For the same compound, the TGI (HS 578T breast) was > 100 µM, the TGI (SR leukemia) was > 100 µM and the TGI (NCI/ADR-RES ovarian) was > 100 µM. The TGI (HOP-92 NSCLC) was > 100 µM, the TGI (SK-MEL-2 melanoma) was > 100 µM and the TGI (SK-OV-3 ovarian) was > 100 µM. The TGI (NCI-H23 lung) was > 100 µM, the TGI (HL-60(TB) leukemia) was > 100 µM and the TGI (786-0 renal) was > 100 µM. For the same compound, the TGI (A498 renal) was > 100 µM and the TGI (SNB-19 CNS) was > 100 µM.
